Results from patent US20240270821A1, “GIP/GLP1/GCG TRI-RECEPTOR AGONISTS AND USES THEREOF” (priority 2023, published 2024).
Where two headings read alike, the source gives them in different places. Starred links: 1 amine or outer side, 2 acyl side, 3 side chain; linkers in the order of their positions; H or OH if unused. Non-standard residues stand in square brackets, D forms with d. Residues, ends and D or L forms follow the SMILES beside them. Groups on a side chain read outwards from the residue. No end group written: not given here. *: point of attachment. C18 diacid = O=C(O)CCCCCCCCCCCCCCCCC(=O)*; αMePhe(2-F) = C[C@](N)(Cc1ccccc1F)C(=O)O; γGlu = O=C(O)[C@H](CCC(=O)[*:2])N[*:1]; αMe4Pal = C[C@](N)(Cc1ccncc1)C(=O)O; αMeY = C[C@](N)(Cc1ccc(O)cc1)C(=O)O; 4Pal = N[C@@H](Cc1ccncc1)C(=O)O; αMeL = CC(C)C[C@](C)(N)C(=O)O; αMeS = C[C@](N)(CO)C(=O)O; Orn = NCCC[C@H](N)C(=O)O; Dap = NC[C@H](N)C(=O)O; AEEA = NCCOCCOCC(=O)O; Aib = CC(C)(N)C(=O)O

Tests used:
Assay type in all cases: cell-based
hGIPR [1] = molecular target: T1, hGIPR (Homo sapiens, UniProt P48546); assay: Functional cAMP activity in the presence of 1% HSA; settings: read-out: cAMP Rel EC50, hGIPR
T1 sequence (P48546 22-466): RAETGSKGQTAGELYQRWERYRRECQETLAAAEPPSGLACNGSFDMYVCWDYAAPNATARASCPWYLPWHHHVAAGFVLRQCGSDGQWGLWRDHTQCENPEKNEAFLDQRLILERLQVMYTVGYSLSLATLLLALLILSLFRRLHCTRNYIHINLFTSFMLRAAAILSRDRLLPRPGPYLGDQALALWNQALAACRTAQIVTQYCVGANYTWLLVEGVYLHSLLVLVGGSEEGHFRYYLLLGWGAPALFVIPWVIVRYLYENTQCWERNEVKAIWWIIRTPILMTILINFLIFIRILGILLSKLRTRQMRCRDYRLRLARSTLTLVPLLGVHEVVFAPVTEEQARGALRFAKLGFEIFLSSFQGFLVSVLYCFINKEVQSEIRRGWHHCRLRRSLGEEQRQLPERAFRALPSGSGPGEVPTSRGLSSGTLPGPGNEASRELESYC

hGLP-1R [2] = molecular target: T2, hGLP-1R (Homo sapiens, UniProt P43220); assay: Functional cAMP activity in the presence of 1% HSA; settings: read-out: cAMP Rel EC50, hGLP-1R
human GcgR = human GcgR (Homo sapiens, UniProt P47871); assay: Functional cAMP activity in the presence of 1% HSA; settings: read-out: cAMP Rel EC50, hGcgR
hGIPR [3] = molecular target: T1, hGIPR; assay: Functional cAMP activation in the presence of 0.1% casein (no HSA); settings: read-out: Relative cAMP EC50, hGIPR;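 as to Relative cAMP EC50, hGIPR: intracellular cAMP rise after 30 min at 37 °C read by HTRF against a standard curve, scaled between buffer alone (0%) and top control ligand concentration (100%), four-parameter fit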;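 as to Relative cAMP EC50, hGLP-1R: intracellular cAMP rise after 30 min at 37 °C read by HTRF, normalized between buffer only (0%) and maximal control ligand (100%), four-parameter variable-slope fit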;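 as to Relative cAMP EC50, hGcgR: intracellular cAMP rise after 30 min at 37 °C, read by HTRF against a cAMP standard curve, scaled from buffer only (0%) to maximal control ligand response (100%)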
hGLP-1R [4] = molecular target: T2, hGLP-1R; assay: as above; settings: read-out: Relative cAMP EC50, hGLP-1R
hGcgR = hGcgR (Homo sapiens, UniProt P47871); assay: as above; settings: read-out: Relative cAMP EC50, hGcgR;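 also: intracellular cAMP rise after 30 min at 37 °C, read by HTRF against a cAMP standard curve, scaled from buffer only (0%) to maximal control ligand response (100%)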
[5] = in the presence of 0.1% casein (no HSA), geometric mean
[6] = 0.1% casein, no HSA, geometric mean
[7] = HEK-293 clonal cell line, 1% HSA, geometric mean of relative EC50
[8] = in the presence of 0.1% casein (no HSA), geometric mean of relative EC50

Chain of human GcgR (P47871 26-477): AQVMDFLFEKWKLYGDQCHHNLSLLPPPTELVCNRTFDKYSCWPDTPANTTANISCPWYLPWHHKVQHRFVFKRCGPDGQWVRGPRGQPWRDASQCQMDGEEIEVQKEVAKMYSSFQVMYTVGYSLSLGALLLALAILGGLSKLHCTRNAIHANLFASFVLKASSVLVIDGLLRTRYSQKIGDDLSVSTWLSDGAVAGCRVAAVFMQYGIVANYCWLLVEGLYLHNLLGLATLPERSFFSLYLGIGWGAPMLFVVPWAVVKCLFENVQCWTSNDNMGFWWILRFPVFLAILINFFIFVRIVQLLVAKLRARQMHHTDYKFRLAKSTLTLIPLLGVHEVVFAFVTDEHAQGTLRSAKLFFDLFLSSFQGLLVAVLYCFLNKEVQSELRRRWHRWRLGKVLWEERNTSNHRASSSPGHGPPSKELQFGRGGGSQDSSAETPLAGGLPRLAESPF
Chain of hGcgR (P47871 26-477): as above
T2 sequence (P43220 24-463): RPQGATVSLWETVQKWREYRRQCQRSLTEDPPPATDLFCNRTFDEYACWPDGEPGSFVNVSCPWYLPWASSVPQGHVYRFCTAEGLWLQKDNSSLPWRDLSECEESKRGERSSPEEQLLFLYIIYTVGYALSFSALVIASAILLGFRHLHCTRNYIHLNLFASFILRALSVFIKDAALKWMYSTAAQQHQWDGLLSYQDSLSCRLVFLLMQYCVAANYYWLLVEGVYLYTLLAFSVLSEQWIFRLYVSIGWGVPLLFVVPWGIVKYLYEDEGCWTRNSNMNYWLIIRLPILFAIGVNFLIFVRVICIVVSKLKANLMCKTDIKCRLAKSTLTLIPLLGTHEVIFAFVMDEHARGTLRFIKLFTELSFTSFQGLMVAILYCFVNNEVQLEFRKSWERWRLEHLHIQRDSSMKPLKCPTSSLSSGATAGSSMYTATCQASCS

Compound | EC50 (hGIPR [1]) | EC50 (hGLP-1R [2]) | EC50 (human GcgR) | EC50 (hGIPR [3]; [5]) | EC50 (hGLP-1R [4]; [5]) | EC50 (hGcgR; [5]) | further results
CC[C@H](C)[C@H](NC(=O)[C@H](Cc1ccccc1)NC(=O)[C@H](C)NC(=O)C(C)(C)NC(=O)[C@H](CCC(N)=O)NC(=O)[C@H](C)NC(=O)[C@H](CCCCNC(=O)COCCOCCNC(=O)CC[C@H](NC(=O)CCCCCCCCCCCCCCCCC(=O)O)C(=O)O)NC(=O)[C@H](CCCCN)NC(=O)[C@H](CC(=O)O)NC(=O)[C@H](CC(C)C)NC(=O)[C@](C)(CC(C)C)NC(=O)[C@H](CCCN)NC(=O)[C@H](CO)NC(=O)[C@H](Cc1ccccc1)NC(=O)[C@H](CC(=O)O)NC(=O)[C@H](CO)NC(=O)[C@@H](NC(=O)[C@H](Cc1ccccc1)NC(=O)[C@@H](NC(=O)CNC(=O)[C@H](CCC(N)=O)NC(=O)C(C)(C)NC(=O)[C@@H](N)Cc1ccc(O)cc1)[C@@H](C)O)[C@@H](C)O)C(=O)N[C@@H](CCC(=O)O)C(=O)N[C@@H](Cc1ccc(O)cc1)C(=O)N[C@@H](CC(C)C)C(=O)N[C@@H](CC(C)C)C(=O)N[C@@H](CCC(=O)O)C(=O)N[C@H](C)C(=O)NCC(=O)N1CCC[C@H]1C(=O)N[C@@H](CO)C(=O)N[C@@H](CO)C(=O)NCC(=O)N[C@@H](C)C(=O)N1CCC[C@H]1C(=O)N1CCC[C@H]1C(=O)N1CCC[C@H]1C(=O)N[C@@H](CO)C(=O)NCC(=O)N[C@@H](Cc1c[nH]cn1)C(N)=O [Example 259] | 18.4 nM | 220 nM | 317 nM | 0.114 nM | 1.47 nM | 2.55 nM | –
H-Y[Aib]QGTFTSD[4Pal]SQ[αMeL]LD[Orn]K([γGlu-γGlu-C18 diacid])AQ[αMe4Pal]AFI[dE][αMeY]LIEGGPSSGAPPPSGSEE-NH2 [Example 1044] | 88.7 nM | 1110 nM | 2410 nM | 0.896 nM | 10.7 nM | 18.8 nM | –
H-Y[Aib]QGTFTSDFS[Dap][αMeL]LDKK([AEEA-γGlu-C18 diacid])AQ[Aib]AFIEYLIE[Aib]GPSSGAPPPSGS-NH2 [Example 800] | 40.2 nM | 164 nM | 2500 nM | 0.283 nM | 0.486 nM | 21 nM | –
Y[Aib]QGTFTSD[4Pal]SQ[αMeL]LD[Orn]K([dE-γGlu-C18 diacid])AQ[αMe4Pal]AFIQ[αMeY]LLEGGPSSGAPPPSGSEEE-NH2 [Example 1083] | 20.5 nM | 547 nM | 1030 nM | 0.328 nM | 7.76 nM | 15 nM | –
H-Y[Aib]QGT[αMePhe(2-F)]TSD[4Pal][αMeS]I[αMeL]LD[Orn]K([AEEA-γGlu-C18 diacid])AQ[αMe4Pal]EFI[dE][αMeY]LVEGGPSSGEPPPSGSE-NH2 [Example 752] | 1.74 nM | 44 nM | 228 nM | – | – | – | EC50 (hGIPR [3]): 0.00689 nM; EC50 (hGLP-1R [4]): 0.274 nM; EC50 (hGcgR): 1.9 nM
H-Y[Aib]QGT[αMePhe(2-F)]TSD[4Pal][αMeS]I[αMeL]LD[Orn]K([γGlu-γGlu-C18 diacid])AQ[Aib]NFI[dE][αMeY]LQEGGPSSGEPPPEGTGE-NH2 [Example 527] | 2.6 nM | 26.8 nM | 580 nM | – | – | – | EC50 (hGIPR [3]): 0.0386 nM; EC50 (hGLP-1R [4]): 0.446 nM; EC50 (hGcgR): 6.99 nM
H-Y[Aib]Q[dA]T[αMePhe(2-F)]TSD[4Pal][αMeS]I[αMeL]LD[Orn]K([AEEA-γGlu-C18 diacid])AQ[Aib]EFI[dE][αMeY]LVEGGPSSGAPPPSGS-NH2 [Example 1204] | 15.8 nM | 37.4 nM | 507 nM | – | – | – | EC50 (hGIPR [3]; [6]): 0.21 nM; EC50 (hGLP-1R [4]; [6]): 0.338 nM; EC50 (hGcgR; [6]): 3.5 nM
CC[C@H](C)[C@H](NC(=O)[C@H](Cc1ccccc1)NC(=O)[C@H](CCCN)NC(=O)C(C)(C)NC(=O)[C@H](CCC(N)=O)NC(=O)[C@H](C)NC(=O)[C@H](CCCCNC(=O)CC[C@H](NC(=O)CC[C@H](NC(=O)CCCCCCCCCCCCCCCCC(=O)O)C(=O)O)C(=O)O)NC(=O)[C@H](CCCN)NC(=O)[C@H](CC(=O)O)NC(=O)[C@H](CC(C)C)NC(=O)[C@](C)(CC(C)C)NC(=O)[C@@H](NC(=O)[C@H](CO)NC(=O)[C@H](Cc1ccncc1)NC(=O)[C@H](CC(=O)O)NC(=O)[C@H](CO)NC(=O)[C@@H](NC(=O)[C@](C)(Cc1ccccc1F)NC(=O)[C@@H](NC(=O)CNC(=O)[C@H](CCC(N)=O)NC(=O)C(C)(C)NC(=O)[C@@H](N)Cc1ccc(O)cc1)[C@@H](C)O)[C@@H](C)O)[C@@H](C)CC)C(=O)N[C@H](CCC(=O)O)C(=O)N[C@@](C)(Cc1ccc(O)cc1)C(=O)N[C@@H](CC(C)C)C(=O)N[C@@H](CC(C)C)C(=O)N[C@@H](CCC(=O)O)C(=O)NCC(=O)NCC(=O)N1CCC[C@H]1C(=O)N[C@@H](CO)C(=O)N[C@@H](CO)C(=O)NCC(=O)N[C@@H](CCC(=O)O)C(=O)N1CCC[C@H]1C(=O)N1CCC[C@H]1C(=O)N1CCC[C@H]1C(=O)N[C@@H](CCC(=O)O)C(N)=O [Example 372] (H-Y[Aib]QGT[αMePhe(2-F)]TSD[4Pal]SI[αMeL]LD[Orn]K([γGlu-γGlu-C18 diacid])AQ[Aib][Orn]FI[dE][αMeY]LLEGGPSSGEPPPE-NH2) | 2.63 nM | 53.1 nM | 468 nM | 0.0161 nM | 0.333 nM | 7.54 nM | –
H-Y[Aib]QGTFTSD[4Pal]SQ[αMeL]LDKK([AEEA-γGlu-C18 diacid])AQ[αMe4Pal]AFIE[αMe4Pal]LIE[Aib]GPSSGAPPPSGTGE-NH2 [Example 1117] | 8.31 nM | 237 nM | 355 nM | 0.124 nM | 3.51 nM | 4.93 nM | –
H-Y[Aib]QGT[αMePhe(2-F)]TSD[4Pal][αMeS]I[αMeL]LD[Orn]K([AEEA-γGlu-C18 diacid])AQ[αMe4Pal]EFI[dE][αMeY]LIEGGPPS[Aib][Orn]PPP[Orn]GGGE-NH2 [Example 1197] | 0.639 nM | 46.1 nM | 288 nM | – | – | – | EC50 (hGIPR [3]; [6]): 0.00666 nM; EC50 (hGLP-1R [4]; [6]): 0.407 nM; EC50 (hGcgR; [6]): 1.88 nM
H-Y[Aib]QGTFTSD[4Pal]SQ[αMeL]LD[Orn]K([AEEA-γGlu-C18 diacid])AQ[αMe4Pal]AFIEYLIQ[Aib]GPSSGEPPPSGSEE-NH2 [Example 1096] | 11.6 nM | 194 nM | 397 nM | 0.0799 nM | 1.47 nM | 3.94 nM | –
H-Y[Aib]QGT[αMePhe(2-F)]TSD[4Pal][αMeS]I[αMeL]LD[Orn]K([Glu-γGlu-C18 diacid])AQ[Aib][Orn]FI[dE][αMeY]LSEGGPSSGEPPPSGTE-NH2 [Example 563] | 11.8 nM | 98.7 nM | 1010 nM | – | – | – | EC50 (hGIPR [3]): 0.132 nM; EC50 (hGLP-1R [4]): 1.01 nM; EC50 (hGcgR): 8.3 nM
H-Y[Aib]QGT[αMePhe(2-F)]TSD[4Pal]SI[αMeL]LDKK([γGlu-γGlu-C18 diacid])AQ[Aib]AFIEYLTEGGPSSGEPPPSGSEE-NH2 [Example 633] | – | – | – | – | – | – | EC50 (hGIPR [1]; [7]): 1.63 nM; EC50 (hGLP-1R [2]; [7]): 41.2 nM; EC50 (human GcgR; [7]): 1500 nM; EC50 (hGIPR [3]; [8]): 0.0186 nM; EC50 (hGLP-1R [4]; [8]): 0.421 nM; EC50 (hGcgR; [8]): 10.2 nM
H-Y[Aib]QGT[αMePhe(2-F)]TSD[4Pal]SI[αMeL]LD[Orn]K([AEEA-γGlu-C18 diacid])AQ[αMe4Pal][Orn]FI[dE][αMeY]LIEGGPSSGAPPPESE-NH2 [Example 755] | 1.39 nM | 23.9 nM | 274 nM | – | – | – | EC50 (hGIPR [3]): 0.00805 nM; EC50 (hGLP-1R [4]): 0.175 nM; EC50 (hGcgR): 2.31 nM
H-Y[Aib]QGTFTSD[4Pal]SQ[αMeL]LD[Orn]K([γGlu-γGlu-C18 diacid])AQ[αMe4Pal]AFIE[αMeY]LIEGGPSSGAPPPSGSEE-NH2 [Example 1043] | 44.9 nM | 268 nM | 2240 nM | 0.282 nM | 1.52 nM | 17.1 nM | –
